Results on 15 molecules are retold here after patent US20240116946A1 (Gilead Sciences, Inc., priority 2022, published 2024).

pEC50, pIC50: −log10 of the molar value. Where two headings read alike, the source gives them in different places.

One assay has as its target SARS-CoV-2 main protease (Severe acute respiratory syndrome coronavirus 2 (2019-nCoV) (SARS-CoV-2), UniProt P0DTD1). Kind of assay: activity comparison of separated atropisomers (assay not given). The following applies: Isomer 1 versus Isomer 2 after chiral SFC separation; used to assign stereochemistry by analogy to Example 438.
The test system of a further assay is SARS-CoV-2-NLuc. The experiment in a line: microbe, parasite or virus in culture. In kind it is cell-based, SARS Coronavirus 2.
Assay [1] concerns the target recombinant SARS-CoV-2 Main protease (Mpro) (Severe acute respiratory syndrome coronavirus 2 (2019-nCoV) (SARS-CoV-2), UniProt P0DTD1). Kind of assay: Cov Mpro Biochemical IC50 Assay. The following applies: read-out: MPro IC50.
[2] abbreviates: recombinant SARS-CoV-2 Mpro 7.5 nM, fluorogenic peptide substrate 40 μM.
[3] abbreviates: Severe acute respiratory syndrome coronavirus, 48 h, read-out: MPro EC50.
[4] abbreviates: Severe acute respiratory syndrome coronavirus, 48 h; read-out: MPro EC50.
[5] abbreviates: recombinant SARS-CoV-2 Mpro, fluorogenic peptide substrate.

Take `Cn1cnc(Cn2c(=O)n(-c3cncc4ccccc34)c(=O)c3sc(-c4ccccc4Cl)cc32)n1` (single isomer, unassigned) [Example 477, 6-(2-chlorophenyl)-3-(4-isoquinolyl)-1-[(1-methyl-1,2,4-triazol-3-yl)methyl]thieno[3,2-d]pyrimidine-2,4-dione]: the “relative activity of the two separated isomers” value (shortened to “relative activity”) on SARS-CoV-2 main protease was “more active isomer”. Further, in the assay with SARS-CoV-2-NLuc (read-out: MPro EC50), the pEC50 – broadly, the negative decadic logarithm of the EC50, by convention in mol/L – was 6.78. The pIC50 – broadly, −log10 of the IC50, conventionally taken in molar units – in assay [1] (setting [2]) was 7.24.

On to `COc1ccc(Cl)c(-c2cc3[nH]c(=O)n(-c4cncc5cccnc45)c(=O)c3s2)c1` (single isomer, unassigned) [Example 468, 6-(2-chloro-5-methoxyphenyl)-3-(1,6-naphthyridin-8-yl)thieno[3,2-d]pyrimidine-2,4(1H,3H)-dione], for which the “relative activity” value at SARS-CoV-2 main protease is recorded as “more active isomer”. In the assay on SARS-CoV-2-NLuc (read-out: MPro EC50), the pEC50 is > 8.20. The negative logarithm of the IC50 (pIC50) in assay [1] (setting [2]) is > 8.60.

As to `Cn1cc(-c2cccc(Cl)c2-c2cc3[nH]c(=O)n(-c4cncc5ccccc45)c(=O)c3s2)c(C(F)(F)F)n1` (single isomer, unassigned) [Example 447, 6-(2-chloro-6-(1-methyl-3-(trifluoromethyl)-1H-pyrazol-4-yl)phenyl)-3-(isoquinolin-4-yl)thieno[3,2-d]pyrimidine-2,4(1H,3H)-dione], the “relative activity” value at SARS-CoV-2 main protease is recorded as “more active isomer”. For the same molecule, the pEC50 in the assay on SARS-CoV-2-NLuc (read-out: MPro EC50) is 8.18. In assay [1] (setting [2]), the pIC50 is 8.38.

As for `O=c1[nH]c2cc(-c3ccccc3Cl)sc2c(=O)n1-c1cncc2cccnc12` (single isomer, unassigned) [Example 464, 6-(2-chlorophenyl)-3-(1,6-naphthyridin-8-yl)thieno[3,2-d]pyrimidine-2,4(1H,3H)-dione], the “relative activity” value on SARS-CoV-2 main protease is “more active isomer”. The pEC50 with SARS-CoV-2-NLuc (read-out: MPro EC50) is 7.94. Also, in assay [1] (setting [2]), the pIC50 was 8.33.

Consider `COc1ccc2cncc(-n3c(=O)[nH]c4cc(-c5ccccc5Cl)sc4c3=O)c2c1` (single isomer, unassigned) [Example 440, 6-(2-chlorophenyl)-3-(6-methoxyisoquinolin-4-yl)thieno[3,2-d]pyrimidine-2,4(1H,3H)-dione], for which the “relative activity” value at SARS-CoV-2 main protease is “more active isomer”. For the same molecule, in the assay on SARS-CoV-2-NLuc (read-out: MPro EC50), the pEC50 was 7.87. In assay [1] (setting [2]), the pIC50 is > 8.40.

Regarding `O=c1[nH]c2cc(-c3ccccc3Cl)sc2c(=O)n1-c1cncc2ccc(N3CCOCC3)cc12` (single isomer, unassigned) [Example 442, 6-(2-chlorophenyl)-3-(6-morpholinoisoquinolin-4-yl)thieno[3,2-d]pyrimidine-2,4(1H,3H)-dione], the “relative activity” value on SARS-CoV-2 main protease was “more active isomer”. Besides, the pEC50 with SARS-CoV-2-NLuc (read-out: MPro EC50) was 7.91. Moreover, the pIC50 in assay [1] (setting [2]) is > 8.46.

On to `COc1ccc(Cl)c(-c2cc3[nH]c(=O)n(-c4cncc5ccccc45)c(=O)c3s2)c1` (single isomer, unassigned) [Example 465, 6-(2-chloro-5-methoxyphenyl)-3-(isoquinolin-4-yl)thieno[3,2-d]pyrimidine-2,4(1H,3H)-dione], for which the “relative activity” value at SARS-CoV-2 main protease is reported as “more active isomer”. Also, in the assay with SARS-CoV-2-NLuc (read-out: MPro EC50), the pEC50 was 8.28. For the same molecule, the pIC50 in assay [1] (setting [2]) is > 8.45.

In the case of `COc1ccc(Cl)c(-c2ccc3c(=O)n(-c4cncc5ccccc45)c(=O)[nH]c3c2)c1` (single isomer, unassigned) [Example 475, 7-(2-chloro-5-methoxy-phenyl)-3-(4-isoquinolyl)-1H-quinazoline-2,4-dione], the “relative activity” value at SARS-CoV-2 main protease is on record as “more active isomer”. Further, the pEC50 in the assay with SARS-CoV-2-NLuc (read-out: MPro EC50) was 7.55. In addition, the pIC50 in assay [1] (setting [2]) was 7.77.

For `O=c1[nH]c2cc(-c3ccccc3Cl)sc2c(=O)n1-c1cncc2ccc(N3CCC(F)(F)C3)cc12` [Example 413], the pEC50 with SARS-CoV-2-NLuc (setting [3]) is 7.18. In addition, the pIC50 in assay [1] (setting [2]) is 8.26.

Take `COc1cc(-c2cc3c(s2)c(=O)n(-c2cncc4ccccc24)c(=O)n3CCC#N)c(Cl)cc1F` (single isomer, unassigned) [Example 638, 3-[6-(2-chloro-4-fluoro-5-methoxy-phenyl)-3-(4-isoquinolyl)-2,4-dioxo-thieno[3,2-d]pyrimidin-1-yl]propanenitrile]: in the assay with SARS-CoV-2-NLuc (read-out: MPro EC50), the pEC50 was 7.22. Also, the pIC50 in assay [1] (setting [2]) was 6.72.

Consider `COc1cc(-c2cc3c(s2)c(=O)n(-c2cncc4cnn(CC(F)F)c24)c(=O)n3CCC#N)c(Cl)cc1F` [Example 911], for which, in the assay with SARS-CoV-2-NLuc (setting [3]), the pEC50 was 7.93. Further, the pIC50 in assay [1] (setting [2]) was 7.88.

On to `N#CCCn1c(=O)n(-c2cnccn2)c(=O)c2sc(-c3ccc(F)cc3C#N)cc21` [Example 829], for which the negative logarithm of the EC50 (pEC50) in the assay on SARS-CoV-2-NLuc (setting [4]) is < 6.00. The pIC50 in assay [1] (setting [2]) was 6.38.

For the molecule `Cc1nn(C2COC2)c(C)c1-c1cccc(Cl)c1-c1ccc2c(=O)n(-c3cncc4ccccc34)c(=O)[nH]c2c1` [Example 321], in the assay on SARS-CoV-2-NLuc (setting [3]), the pEC50 is 7.60. In addition, the pIC50 in assay [1] (setting [5]) was 8.08.

`O=c1[nH]c2cc(-c3ccccc3C(F)(F)F)ccc2c(=O)n1-c1cncc2ccccc12` [Example 24, 3-(isoquinolin-4-yl)-7-(2-(trifluoromethyl)phenyl)quinazoline-2,4(1H,3H)-dione]: in the assay with SARS-CoV-2-NLuc (setting [4]), the pEC50 is 5.60. Moreover, the pIC50 in assay [1] (setting [5]) is 5.56.

Regarding `O=c1[nH]c2cc(-c3c(Cl)cccc3-c3ccc4c(c3)CCS(=O)(=O)N4)ccc2c(=O)n1-c1cncc2ccccc12` [Example 327], the pEC50 in the assay on SARS-CoV-2-NLuc (setting [3]) is 7.02. In assay [1] (setting [5]), the pIC50 was 7.88.
